Measurements published in US20220378681A1, “SKIN CARE FORMULATION WITH LIPOPHILIC PEPTIDES” (DECIEM BEAUTY GROUP INC., priority 2019, published 2022).

Assay: Solubility of SYM3D in oils
Type: physicochemical
Description: Phase B may be prepared by adding MCT oil into a mixing vessel, and incorporating further ingredients such as one or more oil-soluble active ingredients. The ingredients are mixed at room temperature at a speed of 3000 RPM, with side sweep scraping at 15 RPM. Samples should be taken via the valve at the bottom of the kettle and tested by centrifugation, and the solution also visibly inspected to ensure complete incorporation of the second ingredient. Centrifugation of a sample of the mixture is an optional step to ensure complete dissolution of the second ingredient.
Amounts of SYM3D that would be effective in the invented formulation range from 0.1 to 1% by weight of the overall formulation. The specific amount used by the inventors in a sample formulation was 0.5%. SYM3D is selectively soluble in certain oils. […] It is therefore important to include an oil component such as MCT oil which is compatible with SYM3D if it is being used.

solubility in MCT oil (MCT oil, room temperature, 3000 RPM mixing): can be solubilized
solubility in squalane (squalane): not soluble
SMILES: CCCc1cc(OC)c2c(c1)C(C)C(c1ccc(O)c(OC)c1)O2 (centres unmarked) [SYM3D, dihydrodehydrodiisoeugenol]
